The values that follow come from ChEMBL document CHEMBL1165986, “Xestosaprols from the Indonesian marine sponge Xestospongia sp” (J Nat Prod, 2010).

In the test the target is Beta-secretase 1 (Homo sapiens, UniProt P56817). As to the kind of experiment: Inhibition of BACE1 mediated cleavage of amyloid precursor protein by chemiluminescence assay.
Beta-secretase 1, sequence (P56817 whole entry): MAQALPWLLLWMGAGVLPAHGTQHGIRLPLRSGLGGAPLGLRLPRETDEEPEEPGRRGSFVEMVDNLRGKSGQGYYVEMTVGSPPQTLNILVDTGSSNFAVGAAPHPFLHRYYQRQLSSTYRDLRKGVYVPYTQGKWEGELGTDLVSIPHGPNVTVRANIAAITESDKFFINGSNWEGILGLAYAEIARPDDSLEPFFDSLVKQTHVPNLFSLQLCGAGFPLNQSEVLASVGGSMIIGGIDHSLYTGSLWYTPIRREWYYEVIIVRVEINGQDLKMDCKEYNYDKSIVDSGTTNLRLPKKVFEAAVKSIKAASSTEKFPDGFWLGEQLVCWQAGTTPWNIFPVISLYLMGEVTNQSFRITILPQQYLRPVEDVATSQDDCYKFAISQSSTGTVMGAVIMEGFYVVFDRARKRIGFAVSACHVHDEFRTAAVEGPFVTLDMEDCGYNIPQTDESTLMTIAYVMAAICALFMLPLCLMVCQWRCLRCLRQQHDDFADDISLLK

As to `C[C@@]12CCCc3coc(c31)C(=O)c1cc3ccccc3cc12` [XESTOSAPROL M], the IC50 (usually the concentration needed to halve the response being measured) amounted to 104 µM and the inhibition entry is “Dose-dependent effect”.
With `COc1cccc2cc3c(cc12)[C@]1(C)CC[C@H](O)[C@@H]2COC(=C21)C3=O` [XESTOSAPROL J], the concentration for half-maximal inhibition (IC50) worked out at 90 µM and the inhibition entry was “Dose-dependent effect”.
With `C[C@@]12CC[C@H](O)[C@@H]3COC(=C31)C(=O)c1cc3cccc(O)c3cc12` [XESTOSAPROL K], 93 µM corresponded to half-maximal inhibition (IC50) and the inhibition entry was “Dose-dependent effect”.
For the compound `C[C@@]12CC[C@H](O)[C@@H]3COC(=C31)C(=O)c1cc3c(O)cccc3cc12` [XESTOSAPROL G], it took 155 µM to reach half-maximal inhibition (IC50) and the inhibition result is “Dose-dependent effect”.
The matching figures for `C[C@@]12CC[C@H](O)[C@@H]3COC(=C31)C(=O)c1cc3ccccc3cc12` [XESTOSAPROL L]: 98 µM and “Dose-dependent effect”.
The matching figures for `C[C@@]12CC[C@@H](O)[C@@H]3COC(=C31)C(=O)c1cc3c(OCCO)cccc3cc12` [XESTOSAPROL H]: 82 µM and “Dose-dependent effect”.
`C[C@@]12CC[C@@H](O)[C@@H]3COC(=C31)C(=O)c1cc3ccccc3cc12` [XESTOSAPROL I]: the IC50 is 163 µM and the inhibition result was “Dose-dependent effect”.
The matching figures for `C[C@@]12CC[C@H](O)[C@@H]3COC(=C31)C(=O)c1cc3c(OCCO)cccc3cc12` [XESTOSAPROL F]: 135 µM and “Dose-dependent effect”.
